One compound from US7179632B2, “Process for the production of allicin” (Neem Biotech Ltd., priority 2001, dated 2007) can be followed below.

The nature of the data set: Storage stability of allicin in aqueous solution. Type of data set: physicochemical.

In the case of `C=CCS[S+]([O-])CC=C` (centres unmarked) [allicin, thio-2-propene-1-sulfinic acid S-allyl ester], the stability in solution entry is reported as “reasonably stable” (0.5% solution at −40° C., filtered to remove impurities); “extremely unstable” (concentrations above 0.5% solution in water); “unstable” (solution of up to 1.0% v/v allicin). Besides, under “diluted solution, pH controlled to approximately pH 4.5”, the “effect of pH on stability” value is on record as “increases the stability”. The stability on storage entry (non-extracted solution diluted to approximately 'it' allicin, stored below −20° C.) is listed as “stable for several months”.
